Results: patent US7700584B2 (Hangzhou Minsheng Pharmaceuticals Co., Ltd., priority 2004, dated 2010)
pIC50: −log10 of the molar value. Where a name gives a salt, the structure may show the parent alone. Read-outs that look alike come from different tables or passages of the source.

Columns and labels:
[1] = tested on: HL-60 human promyelocytic leukemia; assay: In vitro inhibition rate to tumor cells (MTT), HL-60; type: cell-based; details: for inhibition rate, Results (%) HL-60: 50 μg/ml; for inhibition at 50 µg/mL: Homo sapiens, HL-60, 50 μg/ml, read-out: inhibition rate, Results (%) HL-60
[2] = tested on: SMMC-7721 human hepatic carcinoma; assay: In vitro inhibition rate to tumor cells (MTT), SMMC-7721; type: cell-based; details: for inhibition at 50 µg/mL: Homo sapiens, SMMC-7721, 50 μg/ml, read-out: inhibition rate, Results (%) SMMC-7721
[3] = tested on: Hela human cervical carcinoma; assay: In vitro inhibition rate to tumor cells (MTT), Hela; type: cell-based; details: Homo sapiens, HeLa, 50 μg/ml, read-out: inhibition rate, Results (%) Hela
[4] = tested on: Bel-7402 human hepatic carcinoma; assay: In vitro inhibition rate to tumor cells (MTT), Bel-7402; type: cell-based; details: for inhibition rate, Results (%) Bel-7402: 50 μg/ml; for inhibition at 50 µg/mL: Homo sapiens, Bel-7402, 50 μg/ml, read-out: inhibition rate, Results (%) Bel-7402
[5] = tested on: LLC mouse Lewis lung carcinoma; assay: In vitro inhibition rate to tumor cells (MTT), LLC; type: cell-based; details: 50 μg/ml; for inhibition at 50 µg/mL: Mus musculus, Lewis lung carcinoma
[6] = tested on: U-937 human histocytic lymphoma; assay: In vitro inhibition rate to tumor cells (MTT), U-937; type: cell-based; details: for inhibition rate, Results (%) U-937: 50 μg/ml; for inhibition at 50 µg/mL: Homo sapiens, U-937, 50 μg/ml, read-out: inhibition rate, Results (%) U-937
[7] = tested on: A-549 human lung adenocarcinoma; assay: In vitro inhibition rate to tumor cells (MTT), A-549; type: cell-based; details: for inhibition at 50 µg/mL: Homo sapiens, A549, 50 μg/ml, read-out: inhibition rate, Results (%) A-549
[8] = tested on: MCF-7 human mammary adenocarcinoma; assay: In vitro inhibition rate to tumor cells (MTT), MCF-7; type: cell-based; details: Homo sapiens, MCF7, 50 μg/ml, read-out: inhibition rate, Results (%) MCF-7
[9] = tested on: MDCK (dog kidney) cells; assay: Toxicity TC50 of the samples in MDCK cells (influenza screening); details: concentration of 50% toxicity, given as dilution of the stock solution
[10] = molecular target: T1, HIV-1 integrase (HIV-1 IN) (Human immunodeficiency virus type 1 group M subtype B, UniProt P04585); assay: Screening for the activity against HIV-1 integrase; type: biochemical
T1 construct: a purified HIV-1 integrase was added into each well; purchased
Protocol: Principle of the test: A synthetic oligonucleotide of 30 nt was used as the donor substrate. A synthetic oligonucleotide of 20 nt was used as the target substrate. A 96-well plate was covered by the donor substrate, and a purified HIV-1 integrase was added into each well. ELISA was performed to measure the product of the target DNA chain transfer. A biotin-labeled alkali phosphatase was used to visual the system. OD value was measured by an Enzyme-linked Detector. Add a sample into the reaction system for screening the inhibitor of the enzyme.
1. HIV-1 IN: commercially available.
2. Treatment of the samples: Before use, the sample was dissolved in water or DMSO at a suitable concentration, then serially diluted (5×), four serial dilutions per sample. The stock solutions of two samples were 100-fold diluted with DMSO, then 5-fold diluted, four serial dilutions per sample. Positive control: S-y, provided by Shanghai Organic Chemistry Institute.
3. The donor substrate and target substrate: synthesized by Shanghai Biological Engineering Company (Shanghai Shenggong).
4. Methods: The diluted sample was added into a 96-well plate covered by the donor substrate, and then added into the reaction buffer containing the genetic engineered target enzyme and biotin-target substrate, incubated in the optimal reaction conditions. A biotin-labeled alkali phosphatase was used to visual the system to determine the absorbance at 450 nm (OD450).

[11] = tested on: Hepatitis B virus (HBV); type: cell-based
[12] = molecular target: T2, HIV-1 proteinase (HIV-1 PR) (Human immunodeficiency virus type 1 group M subtype B, UniProt P04585); assay: Screening for in vitro activity against HIV-1 proteinase; type: biochemical
T2 construct: HIV-1 proteinase digests the fluorescent-labeled substrate; purchased
Protocol: Principle of the test: HIV-1 proteinase digests the fluorescent-labeled substrate in an optimal reaction condition and system. The activity of the enzyme can be reflected by the fluorescent intensity in the product of the enzyme reaction. Adding a sample into the reaction system can be used for screening the inhibitor of the enzyme.
1. HIV-1 PR: commercially available, stored at −85° C.
2. Treatment of the samples: Before use, sample was dissolved in DMSO at a suitable concentration, then serially diluted (5×) with double distilled water, five serial dilutions per sample.
3. Positive control: indinavir, purchased from […].
4. Methods: The diluted sample was added into the reaction buffer containing the fluorescent-labeled substrate. Then the genetic engineered target enzyme was added, and incubated in the optimal reaction condition. The fluorescent value was measured with a FLUO star Galaxy luminoscope.

[13] = molecular target: T3, HIV-1 reverse transcriptase (Human immunodeficiency virus type 1 group M subtype B, UniProt P04585); assay: Screening for the in vitro activity against the HIV-1 reverse transcriptase; type: biochemical
T3 construct: purchased
Protocol: Principle of the test: The template to which the HIV-1 reverse transcriptase interacts was covered onto the enzyme-lined template. In the optimal reaction conditions and system, HIV-1 RT will put the substrate comprising Biotin-dUTP onto the reaction template. The activity of the enzyme was measured as the amount of the integrating Biotin-dUTP in the reaction by using streptavidin-labeled horseradish peroxidase. Adding the sample to the reaction system can identify inhibitor of the enzyme.
1. HIV-1 RT: commercially available.
2. Treatment of the samples: Before use, the sample was dissolved in DMSO at a suitable concentration, then serially diluted (5×) with double distilled water, five serial dilutions per sample.
4. Methods: The diluted sample was added into the reaction buffer containing Biotin-dUTP and the genetic engineered target enzyme, and incubated in the optimal reaction conditions. A streptavidin-labeled horseradish peroxidase was added to visual the system, and OD450 was measured.

[14] = tested on: HepG2 cells; assay: Cell status of HepG2 cells treated with sample (HBV screening); type: cell-based; details: 200 μg/ml, HepG2, four days after infection
Protocol: 1.5 Screening for the agents: The HepG2 cells were counted and 1.5×10^4 cells/well were seeded into a 96-well plate. After incubation overnight in an atmosphere of CO2 at 37° C., each of the experimental samples in a given concentration was added to the cells. After incubation at 37 °C for 24 hrs, the HepG2 treated with the samples were infected with vAcGFPHBVc of 100 MOI. A negative control and a positive control were also included. Four days after infection, the growth of the cells were observed, and the HBV e antigen in the supernatant was measured with the HBV e antigen diagnostic kit.

`CC(C)C1CC23OC1(O)C/C(=C\Nc1ccc(O)cc1)C2CCC3C` (centres unmarked) (as salt: hydrochloride) [Compound 6, Curcumol p-hydroxy aniline hydrochloride] gave a melting point of 147.5 to 149.5 °C.

`CC(C)C1CC23OC1(O)C/C(=C\NC(C)(C)C)C2CCC3C` (centres unmarked) (as salt: hydrochloride) [Compound 16, Curcumol t-butyl amine hydrochloride] showed a melting point of 115 to 116 °C.

In the case of `CC(C)C1CC23OC1(O)CC(=CN1CCNCC1)C2CCC3C` (centres unmarked) (as salt: hydrochloride) [Compound 8, Curcumol piperazine hydrochloride], the melting point was 150 to 152 °C.

With `CC(C)C1CC23OC1(O)C/C(=C\NC(C)(C)C)C2CCC3C` (centres unmarked) [Compound 15, Curcumol t-butyl amine] the “inhibition rate, Results (%) HL-60” value ([1]; Table 1) was 8.23%, the “inhibition rate, Results (%) HL-60” value ([1]; Table 2 (repeated screening)) was 2.98% and the “inhibition rate, Results (%) SMMC-7721” value ([2]; 50 μg/ml, Table 2 (repeated screening)) was −8.60%. The inhibition at 50 µg/mL ([2]; Table 1) was -2.5%, the inhibition at 50 µg/mL ([3]; Table 1) was 70% and the inhibition at 50 µg/mL ([3]; Table 2 (repeated screening)) was 71.4%. The “inhibition rate, Results (%) Bel-7402” value ([4]; Table 1) was 32.98%, the “inhibition rate, Results (%) Bel-7402” value ([4]; Table 2 (repeated screening)) was 31.20% and the melting point was 79 to 80 °C. The “inhibition rate, Results (%) LLC” value ([5]; Table 1) was −11.83%, the “inhibition rate, Results (%) LLC” value ([5]; Table 2 (repeated screening)) was −10.12% and the “inhibition rate, Results (%) U-937” value ([6]; Table 1) was 57.32%. For the same compound, the “inhibition rate, Results (%) U-937” value ([6]; Table 2 (repeated screening)) was 50.12%, the “inhibition rate, Results (%) A-549” value ([7]; 50 μg/ml, Table 1) was 17.43% and the inhibition at 50 µg/mL ([7]; Table 2 (repeated screening)) was 12.3%. The inhibition at 50 µg/mL ([8]; Table 1) was 65.3% and the inhibition at 50 µg/mL ([8]; Table 2 (repeated screening)) was 60.1%.

With `C=C1CC2(OC(=O)CCC)OC3(CC2C(C)C)C(C)CCC13` (centres unmarked) [Compound 2, Curcumol butyrate] the inhibition at 50 µg/mL ([1]; Table 1) was 12.3%, the inhibition at 50 µg/mL ([1]; Table 2 (repeated screening)) was 18% and the TC50 [9] was 1/12150 of the stock solution. The inhibition at 50 µg/mL ([2]; Table 1) was 12.3%, the inhibition at 50 µg/mL ([2]; Table 2 (repeated screening)) was 14.7% and the inhibition at 50 µg/mL ([3]; Table 1) was 70.6%. It also gave an inhibition at 50 µg/mL ([3]; Table 2 (repeated screening)) of 75.2%, an inhibition at 50 µg/mL ([4]; Table 1) of 23.3% and an inhibition at 50 µg/mL ([4]; Table 2 (repeated screening)) of 12.8%. For the same compound, the pIC50 [10] was 3.93, the “(Value of the positive control - Measured Value) Value of the positive control × 100%” value ([11]; 200 μg/ml, decrease of HBeAg relative to positive control) was 68.34% and the “OD450 of HBeAg” value ([11]; 200 μg/ml, supernatant four days after infection, positive control 1.917, negative 0.057) was 0.607. The “activity against HBV (in words)” value ([11]; primary screening, HBV e antigen, HepG2, 13 samples) was “had the activity against HBV”, the inhibition at 50 µg/mL ([5]; Table 1) was 2.98% and the inhibition at 50 µg/mL ([5]; Table 2 (repeated screening)) was 0.32%. For the same compound, the inhibition at 50 µg/mL ([6]; Table 1) was 71.2%, the inhibition at 50 µg/mL ([6]; Table 2 (repeated screening)) was 70.3% and the inhibition at 0.08 µg/mL ([12]; 0.08 μg/ml, read-out: Inhibition rate) was 4.13%. It also gave an inhibition at 0.4 µg/mL ([12]; 0.40 μg/ml, read-out: Inhibition rate) of 8.64%, an inhibition at 2 µg/mL ([12]; 2.0 μg/ml, read-out: Inhibition rate) of 2.98% and an inhibition at 10 µg/mL ([12]; 10 μg/ml, read-out: Inhibition rate) of 12.2%. For the same compound, the pIC50 ([12]; IC50, five 5× serial dilutions from 50 μg/ml) was < 3.79, the inhibition at 50 µg/mL ([12]; read-out: Inhibition rate, 50 μg/ml) was 12.7% and the “inhibition rate of HIV-1 reverse transcriptase” value ([13]; 120 ug/ml) was 60%. For the same compound, the pIC50 ([13]; IC50, initial concentration 1/150 of the stock solution) was > 3.41, the inhibition at 50 µg/mL ([7]; Table 1) was 4.93% and the inhibition at 50 µg/mL ([7]; Table 2 (repeated screening)) was 9.23%. For the same compound, the inhibition at 50 µg/mL ([8]; Table 1) was 46%, the inhibition at 50 µg/mL ([8]; Table 2 (repeated screening)) was 41.8% and the Cell status [14] was “Normal”.
